# Experimental data: publication PMC9506587 (Toxins, 2022)
# Columns and labels:
# [1] = system: recombinant protein USTB-05-C (MlrC); conditions: pH 7.3
# [2] = system: recombinant protein USTB-05-C (MlrC); test: in vitro; conditions: Sphingopyxis sp. USTB-05, isolated enzyme, pH 7.3
smiles,measurement,setting,value
C/C=C(/C(=O)N[C@@H](C(=O)O)[C@H](C)C(=O)N[C@@H](CCCNC(=N)N)C(=O)O)N(C)C(=O)CC[C@@H](NC(=O)[C@@H](C)[C@@H](N)/C=C/C(C)=C/[C@H](C)[C@H](Cc1ccccc1)OC)C(=O)O [linear NOD],time to complete removal (degradation) of linear NOD by purified MlrC,[1],≤ 6 h
same,metabolised at 4 h,[2],~98.7%
